Measured values from PMC5372089, “Synthesis and biological evaluation of novel ursolic acid analogues as potential α-glucosidase inhibitors” (Scientific Reports, 2017).
Like-named read-outs stand apart in the source and are kept apart here.

Assays:
[1] = molecular target: T1, α-glucosidase from baker's yeast (Saccharomyces cerevisiae, UniProt P53341); experiment: In vitro α-glucosidase inhibition assay (PNPG substrate, absorbance at 405 nm); type: biochemical
Method: In this assay, α-glucosidase from baker’s yeast has been selected and used in this model according to the procedure described in the previous study with a slight modification. The activity of α-glucosidase was determined by monitoring p-nitrophenol (PNP) released from p-nitrophenol-α-D-glycopyranoside (PNPG) at 405 nm. All examined samples of UA analogues were dissolved in DMSO to generate the stock solution, with the concentrations ranging from 5 μM to 4000 μM. During the enzyme inhibitory assay, each sample’s stock solution was diluted with 0.1 M phosphate buffer solution (pH = 6.8), and the final concentration of enzyme solution was 0.1 U/mL. Then 10 min pre-incubation at 37 °C was conducted. After that, the substrate (PNPG, 1 mmol/L) was added to initiate the reaction. The reaction was incubated for 30 min at 37 °C before it was terminated by adding 1 mol/L Na2CO3 solution, and the optical density value was measured at 405 nm by using a Multimodel Plate Reader (Infinite 200). Each assay was performed three times.
The enzyme activity was measured at a fixed substrate concentration, in which a series of sample concentrations were introduced. The IC50 value was […] relative to a control assay with no inhibitor added.
The α-glucosidase inhibition assay was performed according to the method of Worawalai[32] with a slight modification. The α-glucosidase enzyme (0.1 U/mL) and substrate (1 mM p-nitrophenyl-α-D-glucopyranoside) were dissolved in 0.1 M phosphate buffer, pH 6.8. 10 μL of each synthesized analogue (1 mg/mL in DMSO) was pre-incubated with 8 μL of α-glucosidase at 37 °C for 10 min. A 100 μL of substrate solution was then added to the reaction mixture, which was further incubated at 37 °C for 30 min. Then, the reaction was terminated by adding 100 μL of 1 M Na2CO3 solution. Enzymatic activity was quantified by measuring the absorbance at 405 nm with a use of a Multimodel Plate Reader (Infinite 200). The percentage of inhibition was calculated by using [(A0 − A1)/A0] × 100%, where A0 was the absorbance without the sample, and A1 was the absorbance with the sample. The IC50 value was determined from a plot of the percentage of inhibition versus the sample concentration.

[2] = molecular target: T1, α-glucosidase from baker's yeast; set-up: method as in PMID 26406581; conditions: UA hydroxyl group oxidized into ketone; cited from earlier work
[3] = UA-O and analogues UA-O-a~UA-O-j (Table 2), enzyme 0.1 U/mL, PNPG 1 mM, pH 6.8, 37 °C, mean ± SD, read-out: IC50

T1 sequence (P53341 whole entry): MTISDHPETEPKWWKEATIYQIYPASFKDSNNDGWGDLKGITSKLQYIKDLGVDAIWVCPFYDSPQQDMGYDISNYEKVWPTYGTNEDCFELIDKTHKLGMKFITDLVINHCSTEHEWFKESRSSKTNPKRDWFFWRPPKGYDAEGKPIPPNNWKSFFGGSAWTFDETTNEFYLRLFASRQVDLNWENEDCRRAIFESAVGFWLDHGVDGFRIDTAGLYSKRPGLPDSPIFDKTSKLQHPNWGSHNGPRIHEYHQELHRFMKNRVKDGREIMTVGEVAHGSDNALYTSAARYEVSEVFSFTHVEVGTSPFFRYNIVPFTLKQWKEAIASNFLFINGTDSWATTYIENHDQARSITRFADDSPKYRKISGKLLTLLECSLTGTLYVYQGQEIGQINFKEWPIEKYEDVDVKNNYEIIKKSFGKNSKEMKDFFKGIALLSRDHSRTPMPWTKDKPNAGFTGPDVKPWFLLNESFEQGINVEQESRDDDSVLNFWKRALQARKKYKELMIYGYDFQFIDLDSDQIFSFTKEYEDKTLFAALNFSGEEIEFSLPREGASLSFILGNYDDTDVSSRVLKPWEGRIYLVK

| Compound | IC50 [1, 3] | further results |
| --- | --- | --- |
| C[C@@H]1CC[C@]2(C(=O)O)CC[C@]3(C)C(=CCC4[C@@]5(C)CC[C@H](OC(=O)c6ccco6)C(C)(C)C5CC[C@]43C)C2[C@H]1C (stereo partly drawn) [UA-02] | – | IC50 [1]: 2.51 ± 0.02 µM |
| (1S,2R,4R,6aS,6bR,12aR,Z)-1,2,6a,6b,9,9,12a-heptamethyl-10-oxo-11-(pyrazin-2-ylmethylene)-1,2,3,4,4a,5,6,6a,6b,7,8,8a,9,10,11,12,12a,12b,13,14b-icosahydropicene-4-carboxylic acid [UA-O-g] | 7.87 ± 0.34 µM | – |
| (1S,2R,4R,6aS,6bR,12aR,Z)-1,2,6a,6b,9,9,12a-heptamethyl-10-oxo-11-(thiazol-2-ylmethylene)-1,2,3,4,4a,5,6,6a,6b,7,8,8a,9,10,11,12,12a,12b,13,14b-icosahydropicene-4-carboxylic acid [UA-O-h] | 3.32 ± 0.17 µM | – |
| (1S,2R,4R,6aS,6bR,12aR)-11-((Z)-3-chlorobenzylidene)-1,2,6a,6b,9,9,12a-heptamethyl-10-oxo-1,2,3,4,4a,5,6,6a,6b,7,8,8a,9,10,11,12,12a,12b,13,14b-icosahydropicene-4-carboxylic acid [UA-O-e] | 3.22 ± 0.78 µM | – |
| (1S,2R,4R,6aS,6bR,12aR,Z)-1,2,6a,6b,9,9,12a-heptamethyl-10-oxo-11-((E) -3-phenylallylidene)-1,2,3,4,4a,5,6,6a,6b,7,8,8a,9,10,11,12,12a,12b,13,14b-icosahydropicene-4-carboxylic acid [UA-O-b] | 10.3 ± 0.55 µM | – |
| C[C@@H]1CC[C@]2(C(=O)O)CC[C@]3(C)C(=CCC4[C@@]5(C)CC[C@H](OC(=O)c6ccc(Br)cc6F)C(C)(C)C5CC[C@]43C)C2[C@H]1C (stereo partly drawn) [UA-04] | – | IC50 [1]: 3.94 ± 0.1 µM |
| (1S,2R,4R,6aS,6bR,12aR,Z)-11-((E)-3-(4-fluorophenyl) allylidene)-1,2,6a,6b,9,9,12a-heptamethyl-10-oxo-1,2,3,4,4a,5,6,6a,6b,7,8,8a,9,10,11,12,12a,12b,13,14b-icosahydropicene-4-carboxylic acid [UA-O-c] | 7.49 ± 0.29 µM | – |
| (1S,2R,4R,6aS,6bR,12aR)-1,2,6a,6b,9,9,12a-heptamethyl-11-((Z)-4-methylbenzylidene)-10-oxo-1,2,3,4,4a,5,6,6a,6b,7,8,8a,9,10,11,12,12a,12b,13,14b-icosahydropicene-4-carboxylic acid [UA-O-j] | 1.27 ± 0.2 µM | – |
| (1S,2R,4R,6aS,6bR,12aR,Z)-1,2,6a,6b,9,9,12a-heptamethyl-10-oxo-11-((6-(trifluoromethyl) pyridin-3-yl) methylene)-1,2,3,4,4a,5,6,6a,6b,7,8,8a,9,10,11,12,12a,12b,13,14b-icosahydropicene-4-carboxylic acid [UA-O-f] | 4.87 ± 0.41 µM | – |
| C[C@@H]1CC[C@]2(C(=O)O)CC[C@]3(C)C(=CCC4[C@@]5(C)CC[C@H](OC(=O)c6ccccc6)C(C)(C)C5CC[C@]43C)C2[C@H]1C (stereo partly drawn) [UA-01] | – | IC50 [1]: 4.98 ± 0.21 µM |
| C[C@@H]1CC[C@]2(C(=O)O)CC[C@]3(C)C(=CCC4[C@@]5(C)CC[C@H](O)C(C)(C)C5CC[C@]43C)C2[C@H]1C (stereo partly drawn) [UA, (1S,2R,4aS,6aS,6bR,10S,12aR) -10-hydroxy-1,2,6a,6b,9,9,12a-heptamethyl-1,2,3,4,4a,5,6,6a,6b,7,8,8a,9,10,11,12,12a,12b,13,14b-icosahydropicene-4a-carboxylic acid, reference compound] | – | IC50 [1]: 5.08 ± 0.7 µM |
| (1S,2R,4R,6aS,6bR,10S,12aR)-1,2,6a,6b,9,9,12a-heptamethyl-10-((4-methylpiperazine-1-carbonyl) oxy)-1,2,3,4,4a,5,6,6a,6b,7,8,8a,9,10,11,12,12a,12b,13,14b-icosahydropicene-4-carboxylic acid [UA-05] | – | IC50 ([1]; UA ester derivatives (Table 1), enzyme 0.1 U/mL, PNPG 1 mM, pH 6.8, 37 °C, mean ± SD, read-out: IC50): 15.2 ± 0.47 µM |
| C[C@@H]1CC[C@]2(C(=O)O)CC[C@]3(C)C(=CCC4[C@@]5(C)CC[C@H](OC(=O)C(Cl)Cl)C(C)(C)C5CC[C@]43C)C2[C@H]1C (stereo partly drawn) [UA-03] | – | IC50 [1]: 6.72 ± 0.33 µM |
| C[C@@H]1CC[C@]2(C(=O)O)CC[C@]3(C)C(=CCC4[C@@]5(C)CCC(=O)C(C)(C)C5CC[C@]43C)C2[C@H]1C (stereo partly drawn) [UA-O] | 2.47 ± 0.14 µM | IC50 [2]: 2.47 ± 0.14 µM |
| (1S,2R,4R,6aS,6bR,12aR)-11-((Z)-benzylidene)-1,2,6a,6b,9,9,12a-heptamethyl-10-oxo-1,2,3,4,4a,5,6,6a,6b,7,8,8a,9,10,11,12,12a,12b,13,14b-icosahydropicene-4-carboxylic acid [UA-O-a] | 1.17 ± 0.09 µM | – |
| (1S,2R,4R,6aS,6bR,12aR)-1,2,6a,6b,9,9,12a-heptamethyl-10-oxo-11-((Z)-4-(trifluoromethyl) benzylidene)-1,2,3,4,4a,5,6,6a,6b,7,8,8a,9,10,11,12,12a,12b,13,14b-icosahydropicene-4-carboxylic acid [UA-O-i] | 0.71 ± 0.04 µM | – |
| (1S,2R,4R,6aS,6bR,12aR)-1,2,6a,6b,9,9,12a-heptamethyl-11-((Z)-4-nitrobenzylidene)-10-oxo-1,2,3,4,4a,5,6,6a,6b,7,8,8a,9,10,11,12,12a,12b,13,14b-icosahydropicene-4-carboxylic acid [UA-O-d] | 1.49 ± 0.14 µM | – |
